PubChem BioAssay AID330 (DTP/NCI, 2004)
Values joined by “and” are separate entries in the source; they are usually repeats but may differ in a detail not shown here. Equal entries are not always repeated. Toxic doses and inconclusive results are not listed. The calls were made as follows: active = survival T/C of 150% or more; inactive = T/C below 125% in these data.

Test system: P388 leukemia ip, CD2F1 mice, survival T/C
Experiment: NCI In Vivo Anticancer Drug Screen. Data for tumor model P388 Leukemia (intraperitoneal) in CD2F1 (CDF1) mice
Details: endpoint: median survival time, higher = longer survival
Outline: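 Mice carrying the transplanted tumor received test compound or vehicle. Survival was recorded in each group, and the value is the treated-group measurement divided by that of the vehicle-treated control group.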

[1] = dose: 50.0 mg/kg/injection, schedule: Q01DX009 (ip), vehicle: Klucel (hydroxypropylcellulose) (HPC)
[2] = dose: 100.0 mg/kg/injection, schedule: Q01DX009 (ip), vehicle: Klucel (hydroxypropylcellulose) (HPC)
[3] = dose: 200.0 mg/kg/injection, schedule: Q01DX009 (ip), vehicle: Klucel (hydroxypropylcellulose) (HPC)
[4] = dose: 400.0 mg/kg/injection, schedule: Q01DX009 (ip), vehicle: Klucel (hydroxypropylcellulose) (HPC)
[5] = dose: 50.0 mg/kg/injection, schedule: Q01DX009 (ip), vehicle: saline with Tween-80
[6] = dose: 12.5 mg/kg/injection, schedule: Q01DX009 (ip), vehicle: Klucel (hydroxypropylcellulose) (HPC)
[7] = dose: 25.0 mg/kg/injection, schedule: Q01DX009 (ip), vehicle: Klucel (hydroxypropylcellulose) (HPC)

Measured: T/C

CC(C)(C)c1ccc(C(=O)Nc2ccc(S(N)(=O)=O)cc2)cc1
inactive: [1] 100 % of control | [2] 100 % of control | [3] 101 % of control

CC(=O)NC(C=O)C(OC(C)C(=O)NC(C)C(=O)NC(CCC(N)=O)C(=O)O)C(OC1OC(CO)C(O)C(O)C1NC(C)=O)C(O)CO (centres undefined)
inactive: dose: 6.25 mg/kg/injection, schedule: Q01DX005 (ip), vehicle: saline 111 % of control | dose: 12.5 mg/kg/injection, schedule: Q01DX005 (ip), vehicle: saline 112 % of control | dose: 25.0 mg/kg/injection, schedule: Q01DX005 (ip), vehicle: saline 112 % of control | dose: 50.0 mg/kg/injection, schedule: Q01DX005 (ip), vehicle: saline 116 % of control

COc1cc(C[C@@H]2COC(=O)[C@]2(O)Cc2ccc(O)c(OC)c2)ccc1O
inactive: dose: 1.25 mg/kg/injection, schedule: Q01DX009 (ip), vehicle: alcohol 100 % of control | dose: 2.5 mg/kg/injection, schedule: Q01DX009 (ip), vehicle: alcohol 113 % of control | dose: 5.0 mg/kg/injection, schedule: Q01DX009 (ip), vehicle: alcohol 104 % of control | dose: 8.0 mg/kg/injection, schedule: Q01DX009 (ip), vehicle: saline + alcohol 124 % of control
active: dose: 16.0 mg/kg/injection, schedule: Q01DX009 (ip), vehicle: saline + alcohol 154 % of control

Cc1ccc(S(=O)(=O)OC[C@@H]2CCCC[C@H]2COS(=O)(=O)c2ccc(C)cc2)cc1
inactive: [2] 98 % of control | [3] 98 % of control | [4] 98 % of control

O=[n+]1c2c(n([O-])c3ccccc31)CCCCC2
inactive: dose: 100.0 mg/kg/injection, schedule: Q04DX003 (ip), vehicle: saline with Tween-80 99 % of control | dose: 200.0 mg/kg/injection, schedule: Q04DX003 (ip), vehicle: saline with Tween-80 101 % of control | dose: 400.0 mg/kg/injection, schedule: Q04DX003 (ip), vehicle: saline with Tween-80 92 % of control

ClCc1ccccc1CCl
inactive: dose: 5.0 mg/kg/injection, schedule: Q04DX003 (ip), vehicle: saline with Tween-80 106 % of control | dose: 10.0 mg/kg/injection, schedule: Q04DX003 (ip), vehicle: saline with Tween-80 94 % of control | dose: 20.0 mg/kg/injection, schedule: Q04DX003 (ip), vehicle: saline with Tween-80 100 % of control | dose: 40.0 mg/kg/injection, schedule: Q04DX003 (ip), vehicle: saline with Tween-80 117 % of control

COC(=O)NC1=Nc2ccc(Cl)cc2NS1
inactive: dose: 12.5 mg/kg/injection, schedule: Q01DX005 (ip), vehicle: Klucel (hydroxypropylcellulose) (HPC) 102 % of control | dose: 25.0 mg/kg/injection, schedule: Q01DX005 (ip), vehicle: Klucel (hydroxypropylcellulose) (HPC) 100 % of control | dose: 50.0 mg/kg/injection, schedule: Q01DX005 (ip), vehicle: Klucel (hydroxypropylcellulose) (HPC) 112 % of control and 97 % of control

Cc1cc(N)c2ccccc2c1O
inactive: dose: 12.5 mg/kg/injection, schedule: Q01DX009 (ip), vehicle: saline with Tween-80 110 % of control | dose: 25.0 mg/kg/injection, schedule: Q01DX009 (ip), vehicle: saline with Tween-80 124 % of control | [5] 108 % of control

COC(=O)C1CCC=CC1Sc1ccccc1 (centres undefined)
inactive: [1] 105 % of control | [2] 106 % of control | [3] 112 % of control

CCOC(=O)C1=NN(c2ccccc2)C(=O)C1c1ccccc1 (centres undefined)
inactive: [5] 90 % of control | dose: 100.0 mg/kg/injection, schedule: Q01DX009 (ip), vehicle: saline with Tween-80 93 % of control | dose: 200.0 mg/kg/injection, schedule: Q01DX009 (ip), vehicle: saline with Tween-80 107 % of control

O=C1N[C@H]2[C@H](CS[C@H]2CCCCC(=O)N(CCP(c2ccccc2)c2ccccc2)CCP(c2ccccc2)c2ccccc2)N1
inactive: [6] 104 % of control and 111 % of control | [7] 101 % of control and 105 % of control | [1] 103 % of control and 104 % of control | [2] 108 % of control and 124 % of control | [3] 114 % of control and 119 % of control | [4] 102 % of control and 114 % of control

CC(=O)/C(=C\c1ccccc1Cl)C(=O)CCN(C)C
inactive: dose: 40.0 mg/kg/injection, schedule: Q01DX005 (ip), vehicle: saline 115 % of control | dose: 60.0 mg/kg/injection, schedule: Q01DX005 (ip), vehicle: saline 107 % of control and 112 % of control | dose: 120.0 mg/kg/injection, schedule: Q01DX005 (ip), vehicle: saline 121 % of control | dose: 240.0 mg/kg/injection, schedule: Q01DX005 (ip), vehicle: saline 122 % of control

CC(C)=NNS(=O)(=O)c1ccccc1
inactive: dose: 6.25 mg/kg/injection, schedule: Q01DX009 (ip), vehicle: Klucel (hydroxypropylcellulose) (HPC) 108 % of control | [6] 110 % of control | [7] 100 % of control | [1] 110 % of control | [2] 108 % of control
